Source: ChEMBL document CHEMBL1201862, “PubChem BioAssay data set” (2004)
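Method: 48-hour compound exposure of cells in 96-well plates, five concentrations, linear interpolation of endpoints. At the GI50, growth is halved.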 Active and inactive are the calls of the source. No stated cut-off is given here; in the data, active = GI50 up to about 1.1 µM and inactive = higher.

How the values were obtained:
Experiment in all cases: growth of human tumour cells (NCI), 48 h
HCT-15 = tested on: HCT-15
SK-MEL-5 = tested on: SK-MEL-5
OVCAR-3 = tested on: OVCAR-3
NCI-H460 = tested on: NCI-H460
HCT-116 = tested on: HCT-116
NCI-H23 = tested on: NCI-H23
IGROV-1 = tested on: IGROV-1
KM12 = tested on: KM12
786-0 = tested on: 786-0
DU-145 = tested on: DU-145
COLO 205 = tested on: COLO 205
SNB-19 = tested on: SNB-19
LOX IMVI = tested on: LOX IMVI
SR = tested on: SR
MDA-MB-231 = tested on: MDA-MB-231
MCF7 = tested on: MCF7
CCRF-CEM = tested on: CCRF-CEM
TK-10 = tested on: TK-10
UO-31 = tested on: UO-31
SF-539 = tested on: SF-539
OVCAR-8 = tested on: OVCAR-8
A498 = tested on: A498
Malme-3M = tested on: Malme-3M
M14 = tested on: M14
MDA-MB-435 = tested on: MDA-MB-435
PC-3 = tested on: PC-3
EKVX = tested on: EKVX
SK-MEL-28 = tested on: SK-MEL-28
BT-549 = tested on: BT-549
RPMI-8226 = tested on: RPMI-8226
K562 = tested on: K562
SF-295 = tested on: SF-295
HT-29 = tested on: HT-29
UACC-257 = tested on: UACC-257
CAKI-1 = tested on: CAKI-1
SN12C = tested on: SN12C
UACC-62 = tested on: UACC-62
SF-268 = tested on: SF-268
U-251 = tested on: U-251
NCI/ADR-RES = tested on: NCI/ADR-RES
NCI-H522 = tested on: NCI-H522
ACHN = tested on: ACHN
HCC 2998 = tested on: HCC 2998
SNB-75 = tested on: SNB-75
SK-MEL-2 = tested on: SK-MEL-2
SW-620 = tested on: SW-620
NCI-H226 = tested on: NCI-H226
SK-OV-3 = tested on: SK-OV-3
Hs-578T = tested on: Hs-578T
MOLT-4 = tested on: MOLT-4
A549 = tested on: A549
RXF 393 = tested on: RXF 393
HL-60 = tested on: HL-60
MDA-N = tested on: MDA-N
OVCAR-5 = tested on: OVCAR-5
OVCAR-4 = tested on: OVCAR-4
HOP-92 = tested on: HOP-92
HOP-62 = tested on: HOP-62

With CCN1c2nc3ccccc3nc2N(CC)c2nc3ccccc3nc21 the GI50 (HCT-15) was 34.1 µM, the GI50 (SK-MEL-5) was 41.2 µM (inactive) and the GI50 (OVCAR-3) was 41.2 µM (inactive). For the same molecule, the GI50 (NCI-H460) was 32.9 µM (inactive), the GI50 (HCT-116) was 26.9 µM (inactive) and the GI50 (NCI-H23) was 49.1 µM (inactive). The GI50 (IGROV-1) was 23.2 µM (inactive), the GI50 (KM12) was 39.5 µM (inactive) and the GI50 (786-0) was 46.1 µM (inactive). For the same molecule, the GI50 (DU-145) was 65.8 µM (inactive), the GI50 (COLO 205) was 82.2 µM (inactive) and the GI50 (SNB-19) was > 100 µM (inactive). The GI50 (LOX IMVI) was > 100 µM (inactive), the GI50 (SR) was 12.8 µM (inactive) and the GI50 (MDA-MB-231) was 70.8 µM (inactive). For the same molecule, the GI50 (MCF7) was 96.4 µM (inactive), the GI50 (CCRF-CEM) was 48.3 µM (inactive) and the GI50 (TK-10) was 52.6 µM (inactive). The GI50 (UO-31) was 96.6 µM (inactive), the GI50 (SF-539) was 25.8 µM (inactive) and the GI50 (OVCAR-8) was 60.1 µM (inactive). For the same molecule, the GI50 (A498) was 57.3 µM (inactive), the GI50 (Malme-3M) was 70.8 µM (inactive) and the GI50 (M14) was 61.9 µM (inactive). The GI50 (MDA-MB-435) was 42.3 µM (inactive), the GI50 (PC-3) was 61.5 µM (inactive) and the GI50 (EKVX) was 19.1 µM (inactive). For the same molecule, the GI50 (SK-MEL-28) was 46.5 µM (inactive), the GI50 (BT-549) was 80.5 µM (inactive) and the GI50 (RPMI-8226) was 34.5 µM (inactive). For the same molecule, the GI50 (K562) was 34 µM (inactive), the GI50 (SF-295) was 39.7 µM (inactive) and the GI50 (HT-29) was 39.5 µM (inactive). For the same molecule, the GI50 (UACC-257) was > 10 µM (inactive), the GI50 (CAKI-1) was 55.8 µM (inactive) and the GI50 (SN12C) was 47.1 µM (inactive). The GI50 (UACC-62) was 39.2 µM (inactive), the GI50 (SF-268) was 32.1 µM (inactive) and the GI50 (U-251) was 48 µM (inactive). The GI50 (NCI/ADR-RES) was 63.8 µM (inactive), the GI50 (NCI-H522) was 49.5 µM (inactive) and the GI50 (ACHN) was 39.1 µM (inactive). For the same molecule, the GI50 (HCC 2998) was 50.5 µM (inactive), the GI50 (SNB-75) was > 10 µM (inactive) and the GI50 (SK-MEL-2) was > 100 µM (inactive). The GI50 (SW-620) was 30.7 µM (inactive), the GI50 (NCI-H226) was 51.8 µM (inactive) and the GI50 (SK-OV-3) was > 100 µM (inactive). The GI50 (Hs-578T) was 71.4 µM (inactive), the GI50 (MOLT-4) was 41.8 µM (inactive) and the GI50 (A549) was 88.7 µM (inactive). For the same molecule, the GI50 (RXF 393) was 55.5 µM (inactive), the GI50 (HL-60) was 34.7 µM (inactive) and the GI50 (MDA-N) was 57.8 µM (inactive). The GI50 (OVCAR-5) was > 100 µM (inactive).
In the case of Oc1cc(O)c2ccc(-c3ccc(O)c(O)c3)[o+]c2c1, the GI50 (HCT-15) is reported as > 100 µM, the GI50 (OVCAR-3) is reported as > 100 µM (inactive) and the GI50 (NCI-H460) is reported as > 100 µM (inactive). For the same molecule, the GI50 (OVCAR-4) was > 100 µM (inactive), the GI50 (HCT-116) was > 100 µM (inactive) and the GI50 (NCI-H23) was > 100 µM (inactive). For the same molecule, the GI50 (IGROV-1) was > 100 µM (inactive), the GI50 (KM12) was > 100 µM (inactive) and the GI50 (786-0) was > 100 µM (inactive). For the same molecule, the GI50 (SNB-19) was > 100 µM (inactive), the GI50 (LOX IMVI) was > 100 µM (inactive) and the GI50 (HOP-92) was > 100 µM (inactive). For the same molecule, the GI50 (MCF7) was > 100 µM (inactive), the GI50 (CCRF-CEM) was 67.9 µM (inactive) and the GI50 (TK-10) was > 100 µM (inactive). The GI50 (UO-31) was > 100 µM (inactive), the GI50 (SF-539) was > 100 µM (inactive) and the GI50 (OVCAR-8) was > 100 µM (inactive). For the same molecule, the GI50 (A498) was > 100 µM (inactive), the GI50 (Malme-3M) was > 100 µM (inactive) and the GI50 (M14) was > 100 µM (inactive). For the same molecule, the GI50 (MDA-MB-435) was > 100 µM (inactive), the GI50 (PC-3) was > 100 µM (inactive) and the GI50 (EKVX) was > 100 µM (inactive). For the same molecule, the GI50 (SK-MEL-28) was > 100 µM (inactive), the GI50 (BT-549) was 39.9 µM (inactive) and the GI50 (RPMI-8226) was 84.9 µM (inactive). For the same molecule, the GI50 (K562) was > 100 µM (inactive), the GI50 (SF-295) was > 10 µM (inactive) and the GI50 (HT-29) was > 100 µM (inactive). For the same molecule, the GI50 (UACC-257) was > 100 µM (inactive), the GI50 (CAKI-1) was > 100 µM (inactive) and the GI50 (SN12C) was > 100 µM (inactive). The GI50 (UACC-62) was > 100 µM (inactive), the GI50 (SF-268) was > 100 µM (inactive) and the GI50 (U-251) was > 100 µM (inactive). The GI50 (NCI/ADR-RES) was > 100 µM (inactive), the GI50 (NCI-H522) was > 100 µM (inactive) and the GI50 (ACHN) was > 100 µM (inactive). For the same molecule, the GI50 (HCC 2998) was > 100 µM (inactive), the GI50 (SNB-75) was > 100 µM (inactive) and the GI50 (SK-MEL-2) was > 100 µM (inactive). The GI50 (SW-620) was > 100 µM (inactive), the GI50 (NCI-H226) was > 100 µM (inactive) and the GI50 (HOP-62) was > 100 µM (inactive). For the same molecule, the GI50 (SK-OV-3) was > 100 µM (inactive), the GI50 (Hs-578T) was > 100 µM (inactive) and the GI50 (MOLT-4) was > 100 µM (inactive). For the same molecule, the GI50 (A549) was > 100 µM (inactive), the GI50 (RXF 393) was 63.8 µM (inactive) and the GI50 (HL-60) was > 100 µM (inactive). The GI50 (MDA-N) was > 100 µM (inactive) and the GI50 (OVCAR-5) was > 100 µM (inactive).
